Source: patent US11439641B2, “Pyrimidine JAK inhibitors for the treatment of skin diseases” (THERAVANCE BIOPHARMA R&D IP, LLC, priority 2019, dated 2022)
≈ marks a conversion by molar mass, not a printed value.

Experiments:
[1] = biological target: JAK3 (Homo sapiens (Human), UniProt P52333); assay: Biochemical JAK and Tyk2 Kinase Assays (LanthaScreen), JAK3; details: 1.6 μM ATP (Km); pIC50 converted to pKi by Cheng-Prusoff; read-out: JAK 3 (pKi) (converted)
Method: (§1) Assay 1: Biochemical JAK and Tyk2 Kinase Assays
(§2) A panel of four LanthaScreen JAK biochemical assays (JAK1, 2, 3 and Tyk2) were carried in a common kinase reaction buffer (50 mM HEPES, pH 7.5, 0.01% Brij-35, 10 mM MgCl2, and 1 mM EGTA). Recombinant GST-tagged JAK enzymes and a GFP-tagged STAT1 peptide substrate were obtained from Life Technologies.
(§3) Serially or discretely diluted compounds were pre-incubated with each of the four JAK enzymes and the substrate in white 384-well microplates (Corning) at ambient temperature for 1 h. ATP was subsequently added to initiate the kinase reactions in 10 μL total volume, with 1% DMSO. The final enzyme concentrations for JAK1, 2, 3 and Tyk2 are 4.2 nM, 0.1 nM, 1 nM, and 0.25 nM respectively; the corresponding Km ATP concentrations used are 25 μM, 3 μM, 1.6 μM, and 10 μM; while the substrate concentration is 200 nM for all four assays. Kinase reactions were allowed to proceed for 1 hour at ambient temperature before a 10 μL preparation of EDTA (10 mM final concentration) and Tb-anti-pSTAT1 (pTyr701) antibody (Life Technologies, 2 nM final concentration) in TR-FRET dilution buffer (Life Technologies) was added. The plates were allowed to incubate at ambient temperature for 1 h before being read on the EnVision reader (Perkin Elmer). Emission ratio signals (520 nm/495 nm) were recorded and utilized to calculate the percent inhibition values based on DMSO and background controls.
(§4) For dose-response analysis, percent inhibition data were plotted vs. compound concentrations, and IC50 values were determined from a 4-parameter robust fit model with the Prism software (GraphPad Software). Results were expressed as pIC50 (negative logarithm of IC50) and subsequently converted to pKi (negative logarithm of dissociation constant, Ki) using the Cheng-Prusoff equation.

[2] = biological target: JAK1 (Homo sapiens (Human), UniProt P23458); assay: Biochemical JAK and Tyk2 Kinase Assays (LanthaScreen), JAK1; details: 25 μM ATP (Km); pIC50 converted to pKi by Cheng-Prusoff
Chain of JAK1 (P23458 whole entry): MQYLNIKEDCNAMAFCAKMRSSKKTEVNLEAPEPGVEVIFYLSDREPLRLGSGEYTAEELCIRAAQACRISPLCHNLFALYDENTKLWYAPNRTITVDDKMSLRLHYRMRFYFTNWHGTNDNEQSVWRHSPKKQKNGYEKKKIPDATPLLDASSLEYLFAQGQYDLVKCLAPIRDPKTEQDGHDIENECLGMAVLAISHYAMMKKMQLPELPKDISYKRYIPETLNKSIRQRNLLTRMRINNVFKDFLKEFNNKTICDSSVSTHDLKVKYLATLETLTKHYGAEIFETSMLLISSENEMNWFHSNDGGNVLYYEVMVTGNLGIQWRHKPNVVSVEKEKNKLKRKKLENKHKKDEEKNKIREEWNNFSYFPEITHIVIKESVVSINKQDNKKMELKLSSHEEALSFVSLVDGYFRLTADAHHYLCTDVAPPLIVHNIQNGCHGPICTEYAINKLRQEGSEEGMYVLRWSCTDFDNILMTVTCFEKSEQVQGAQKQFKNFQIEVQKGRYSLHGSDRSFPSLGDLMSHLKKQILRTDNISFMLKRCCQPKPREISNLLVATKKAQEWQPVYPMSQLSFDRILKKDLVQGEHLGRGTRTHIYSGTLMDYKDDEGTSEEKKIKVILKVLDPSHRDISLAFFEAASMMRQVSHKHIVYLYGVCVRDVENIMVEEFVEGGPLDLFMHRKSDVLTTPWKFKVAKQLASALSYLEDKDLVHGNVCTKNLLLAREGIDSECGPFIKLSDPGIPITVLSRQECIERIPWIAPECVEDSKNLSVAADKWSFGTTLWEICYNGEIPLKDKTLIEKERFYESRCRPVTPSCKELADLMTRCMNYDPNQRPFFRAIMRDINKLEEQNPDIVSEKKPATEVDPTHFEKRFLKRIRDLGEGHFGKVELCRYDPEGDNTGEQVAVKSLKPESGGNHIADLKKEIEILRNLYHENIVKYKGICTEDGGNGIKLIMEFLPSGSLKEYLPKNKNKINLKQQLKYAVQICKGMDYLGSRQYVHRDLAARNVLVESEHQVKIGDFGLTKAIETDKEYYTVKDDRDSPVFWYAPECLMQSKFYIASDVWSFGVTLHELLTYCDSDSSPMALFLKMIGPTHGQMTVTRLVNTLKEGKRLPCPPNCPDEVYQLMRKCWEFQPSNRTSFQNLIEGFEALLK
Method: as §1, §2, §3, §4

[3] = physchem; details: thermodynamic from solid
Method: Assay 6: Solubility Assay in Organic Excipients
The purpose of this assay was to quantify the solubility of test compounds in different organic excipients such as diisopropyl adipate, medium chain triglycerides (MCT), propylene glycol, and polyethylene glycol. The assay required 80 μL of 100 mM DMSO test compound solution per desired excipient in addition to 40 μL required to make a test standard.
The standard was created by diluting 40 μL of 100 mM DMSO compound stock solution into 160 μL of methanol and was shaken for five minutes to ensure solution uniformity. […] This 20,000 μM solution was run on an Agilent 1260 LC-MS system by injecting 0.2 μL in order to obtain the peak area. For the test solutions, 80 μL of 100 mM DMSO compound stock solution, per excipient, were dried down into a powder overnight. Once in powder form, 400 μL of the desired excipient was added to the powder and allowed to shake vigorously for four hours. The maximum theoretical concentration for this sample solution was 20,000 μM. After four hours of shaking, the samples were centrifuged for 10 minutes at 3,000 RPM before injecting 0.2 μL on the same Agilent 1260 LC-MS system to obtain the peak area.

[4] = tested on: IL-2 stimulated pSTAT5 in Tall-1 T cells; assay: Inhibition of IL-2 Stimulated pSTAT5 in Tall-1 T Cells; assay type: cell-based; details: Tall-1 human T cell line, IL-2 300 ng/mL, AlphaLisa; read-out: Tall-1 IL2 pSTAT5 (pIC50) (converted)
Method: Assay 2: Inhibition of IL-2 Stimulated pSTAT5 in Tall-1 T Cells
The potency of test compounds for inhibition of interleukin-2 (IL-2) stimulated STATS phosphorylation was measured in the Tall-1 human T cell line (DSMZ) using AlphaLisa. Because IL-2 signals through JAK1/3, this assay provides a measure of JAK1/3 cellular potency.
Phosphorylated STATS was measured via the AlphaLISA SureFire Ultra pSTAT5 (Tyr694/699) kit (PerkinElmer). Human T cells from the Tall-1 cell line were cultured in a 37° C., 5% CO2 humidified incubator in RPMI (Life Technologies) supplemented with 15% Heat Inactivated Fetal Bovine Serum (FBS, Life Technologies), 2 mM Glutamax (Life Technologies), 25 mM HEPES (Life Technologies) and 1× Pen/Strep (Life Technologies). Compounds were serially diluted in DMSO and dispensed acoustically to empty wells. Assay media (phenol red-free DMEM (Life Technologies) supplemented with 10% FBS (ATCC)) was dispensed (4 μL/well) and plates shaken at 900 rpm for 10 mins. Cells were seeded at 45,000 cells/well in assay media (4 μL/well), and incubated at 37° C., 5% CO2 for 1 hour, followed by the addition of IL-2 (R&D Systems; final concentration 300 ng/mL) in pre-warmed assay media (4 μL) for 30 minutes. After cytokine stimulation, cells were lysed with 6 ul of 3× AlphaLisa Lysis Buffer (PerkinElmer) containing 1× PhosStop and Complete tablets (Roche). The lysate was shaken at 900 rpm for 10 minutes at room temperature (RT). Phosphorylated STATS was measured via the pSTAT5 AlphaLisa kit (PerkinElmer). Freshly prepared acceptor bead mixture was dispensed onto lysate (51) under green filtered <100 lux light. Plates were shaken at 900 rpm for 2 mins, briefly spun down, and incubated for 2 hrs at RT in the dark. Donor beads were dispensed (5 μL) under green filtered <100 lux light. Plates were shaken at 900 rpm for 2 minutes, briefly spun down, and incubated overnight at RT in the dark. Luminescence was measured with excitation at 689 nm and emission at 570 nm using an EnVision plate r reader (PerkinElmer) under green filtered <100 lux light.
To determine the inhibitory potency of test compounds in response to IL-2, the average emission intensity of beads bound to pSTAT5 was measured in a human T cell line. IC50 values were determined from analysis of the inhibition curves of signal intensity versus compound concentration. Data are expressed as pIC50 (negative decadic logarithm IC50) values (mean±standard deviation).

[5] = tested on: Caco-2 cell monolayer; assay: Caco-2 Permeation Assay; assay type: in vitro ADME; details: Papp, 5 μM compound
Method: Assay 3: Caco-2 Permeation Assay
The Caco 2 permeability assay was used as a surrogate for assessment of skin permeability. This assay measures the in vitro permeability across a monolayer of Caco-2 cells, which morphologically and functionally resemble the enterocytes of the small intestine.
CacoReady 24-well transwell plates were obtained from ADMEcell (Alameda, Calif.). The compounds were evaluated at a concentration of 5 μM from 10 mM DMSO stock solutions in duplicate (n=2). Transport in the apical to basal (A→B) direction was determined in Caco 2 cell monolayers. From these values the apparent permeability (Papp) was calculated. To inform on the potential of the compound to be a P-gp substrate, the transport of the compound across the Caco-2 cell monolayer was also determined in the presence of 25 μM of the known P-gp inhibitor verapamil (Yusa and Tsuruo et al., Cancer Research, vol. 49, no. 18, 1989, pp. 5002-06).
Caco-2 culture media consisted of standard filtered DMEM, FCS 10%, L-Glutamine 1%, and PenStrep 1%. The experiment was conducted at 37° C. and in a CO2 (5%) incubator. The basal assay plate was prepared by adding 750 pt of transport buffer to A→B wells. A CacoReady™ plate was prepared by removing the Caco-2 media from the apical wells and replacing with fresh transport media (200 pt repeated for a total of 3 washes). Blank media (200 μL) was then replaced with diluted compound. To begin the incubation, the basal plate was removed from the incubator and the apical section was added on top of it. Samples were collected from the apical and basal compartments for time zero (t0). Samples were collected again after 120 minutes (t120) from the apical and basal compartments. All samples were diluted and prepared for bioanalysis by LC-MS/MS. The permeability coefficients (Papp, mean A to B) and (Papp, mean A to B+Verapamil) in cm/sec were calculated as dQ (flux)/(dt×Area×concentration).
In this assay, a compound with a Papp value of more than about 12×10−6 cm/sec is considered to have high permeability.

[6] = oil or lipid, Solubility in MCT (mg/mL)
[7] = organic solvent or mixture, Solubility in Diisopropyl adipate (mg/mL)
[8] = organic solvent or mixture, Solubility in PEG400 (mg/mL)
[9] = organic solvent or mixture, Solubility in Propylene glycol (mg/mL)

Chain of JAK3 (P52333 whole entry): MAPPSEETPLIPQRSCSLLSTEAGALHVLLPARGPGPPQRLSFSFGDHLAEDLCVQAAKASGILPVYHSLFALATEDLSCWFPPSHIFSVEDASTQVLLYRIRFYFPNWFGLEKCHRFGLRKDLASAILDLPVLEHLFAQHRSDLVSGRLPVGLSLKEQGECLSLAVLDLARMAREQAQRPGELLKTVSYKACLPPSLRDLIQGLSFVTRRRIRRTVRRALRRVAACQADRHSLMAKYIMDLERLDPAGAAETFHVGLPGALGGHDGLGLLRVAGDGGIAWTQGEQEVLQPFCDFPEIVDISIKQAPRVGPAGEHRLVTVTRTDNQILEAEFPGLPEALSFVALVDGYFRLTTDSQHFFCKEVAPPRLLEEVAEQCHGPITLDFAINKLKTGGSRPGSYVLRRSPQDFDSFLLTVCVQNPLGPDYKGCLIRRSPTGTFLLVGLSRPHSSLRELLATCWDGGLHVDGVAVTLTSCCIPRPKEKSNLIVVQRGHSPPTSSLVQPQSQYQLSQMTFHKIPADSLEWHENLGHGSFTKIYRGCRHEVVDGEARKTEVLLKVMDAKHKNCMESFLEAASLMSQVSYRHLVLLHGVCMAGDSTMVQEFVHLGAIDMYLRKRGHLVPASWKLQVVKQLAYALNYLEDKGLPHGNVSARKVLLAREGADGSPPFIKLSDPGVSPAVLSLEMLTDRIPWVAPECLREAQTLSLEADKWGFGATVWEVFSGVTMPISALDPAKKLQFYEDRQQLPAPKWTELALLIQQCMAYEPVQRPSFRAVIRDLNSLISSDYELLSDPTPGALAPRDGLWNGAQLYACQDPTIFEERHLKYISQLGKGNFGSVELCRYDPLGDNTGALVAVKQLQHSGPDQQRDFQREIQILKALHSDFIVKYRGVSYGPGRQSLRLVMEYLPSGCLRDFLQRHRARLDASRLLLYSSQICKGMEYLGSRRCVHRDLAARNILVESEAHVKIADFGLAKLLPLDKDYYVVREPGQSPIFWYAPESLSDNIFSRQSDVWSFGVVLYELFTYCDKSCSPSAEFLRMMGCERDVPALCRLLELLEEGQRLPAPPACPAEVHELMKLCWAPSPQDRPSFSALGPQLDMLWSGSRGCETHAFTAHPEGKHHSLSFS

| Structure (SMILES) | Ki [1] [nM] | JAK 1 (pKi) [2] | solubility at 4 h [3, 6] [µg/mL] | solubility at 4 h [3, 7] [µg/mL] | solubility at 4 h [3, 8] [µg/mL] | solubility at 4 h [3, 9] [µg/mL] | IC50 [4] [nM] | Cacoverap Kp 10^−6 cm/sec ([5]; A→B in the presence of 25 μM verapamil (P-gp inhibitor)) | Caco Kp 10^−6 cm/sec ([5]; apical to basal (A→B)) |
| --- | --- | --- | --- | --- | --- | --- | --- | --- | --- |
| Cc1cc(Nc2cc(OC3COC3)nc(N(C)[C@@H]3C[C@H]4CCC[C@@H](C3)N4CC(=O)N3CCCC3)n2)n[nH]1 [Compound 38] | 0.1 to 1 | A (A represents a pKi value ≥10 (Ki≤0.1 nM)) | < 5000 | < 5000 | < 5000 | < 5000 | ≤ 10 | – | – |
| CCOC(=O)N1[C@@H]2CCC[C@H]1C[C@H](N(C)c1nc(Nc3cc(C)[nH]n3)cc(O[C@@H]3CCOC3)n1)C2 [Compound 24] | 0.1 to 1 | A (A represents a pKi value ≥10 (Ki≤0.1 nM)) | < 5000 | < 5000 | < 5000 | < 5000 | 10 to 31.6 | – | – |
| Cc1cc(Nc2cc(O[C@H]3CCOC3)nc(N(C)[C@@H]3C[C@H]4CCC[C@@H](C3)N4C(=O)CC3CC3)n2)n[nH]1 [Compound 30] | 0.1 to 1 | A (A represents a pKi value ≥10 (Ki≤0.1 nM)) | < 5000 | < 5000 | < 5000 | < 5000 | ≤ 10 | – | – |
| CCS(=O)(=O)N1[C@@H]2CCC[C@H]1C[C@H](N(C)c1nc(Nc3cc(C)[nH]n3)cc(C3CCOCC3)n1)C2 [Compound 1, N^2-((1R,3s,5S)-9-(ethylsulfonyl)-9-azabicyclo[3.3.1]nonan-3-yl)-N^2-methyl-N^4-(5-methyl-1H-pyrazol-3-yl)-6-(tetrahydro-2H-pyran-4-yl)pyrimidine-2,4-diamine] | 0.1 to 1 | A (A represents a pKi value ≥10 (Ki≤0.1 nM)) | < 5000 | > 10000 | > 10000 | > 10000 | ≤ 10 | A (A represents a value above 35×10^−6 cm/sec) | A (A represents a value above 30×10^−6 cm/sec) |
| Cc1cc(Nc2cc(O[C@@H]3CCOC3)nc(N(C)[C@@H]3C[C@H]4CCC[C@@H](C3)N4C(=O)CC3CC3)n2)n[nH]1 [Compound 26] | 0.1 to 1 | A (A represents a pKi value ≥10 (Ki≤0.1 nM)) | < 5000 | < 5000 | < 5000 | < 5000 | ≤ 10 | – | – |
| COC(=O)N1[C@@H]2CCC[C@H]1C[C@H](N(C)c1nc(Nc3cc(C)[nH]n3)cc(O[C@H]3CCOC3)n1)C2 [Compound 27] | 0.1 to 1 | A (A represents a pKi value ≥10 (Ki≤0.1 nM)) | < 5000 | < 5000 | < 5000 | < 5000 | 10 to 31.6 | – | – |
| CCNC(=O)CN1[C@@H]2CCC[C@H]1C[C@H](N(C)c1nc(Nc3cc(C)[nH]n3)cc(OC3COC3)n1)C2 [Compound 37] | 0.1 to 1 | A (A represents a pKi value ≥10 (Ki≤0.1 nM)) | < 5000 | < 5000 | < 5000 | < 5000 | ≤ 10 | – | – |
| COCCC(=O)N1[C@@H]2CCC[C@H]1C[C@H](N(C)c1nc(Nc3cc(C)[nH]n3)cc(O[C@H]3CCOC3)n1)C2 [Compound 29] | 0.1 to 1 | A (A represents a pKi value ≥10 (Ki≤0.1 nM)) | < 5000 | > 10000 | 5000 to 10000 (≈ 10 to 20 mM) | > 10000 | ≤ 10 | – | – |
| CCC(=O)N1[C@@H]2CCC[C@H]1C[C@H](N(C)c1nc(Nc3cc(C)[nH]n3)cc(O[C@H]3CCOC3)n1)C2 [Compound 28] | 0.1 to 1 | A (A represents a pKi value ≥10 (Ki≤0.1 nM)) | < 5000 | 5000 to 10000 (≈ 10.6 to 21.3 mM) | 5000 to 10000 (≈ 10.6 to 21.3 mM) | > 10000 | ≤ 10 | – | – |
| Cc1cc(Nc2cc(O[C@@H]3CCOC3)nc(N(C)[C@@H]3C[C@H]4CCC[C@@H](C3)N4CC(=O)N3CCCC3)n2)n[nH]1 [Compound 19] | 0.1 to 1 | A (A represents a pKi value ≥10 (Ki≤0.1 nM)) | < 5000 | < 5000 | < 5000 | < 5000 | ≤ 10 | – | – |
